Patent US12077503B2, “Substituted cyclic amides and their use as herbicides” (FMC CORPORATION, priority 2015, dated 2024)

What was measured:
Experiment in all cases: Test C preemergence
Assay type in all cases: in vivo
[1] = system: Galium (catchweed bedstraw, Galium aparine); settings: for Plant response rating, Galium: scale 0 to 100, 0 no effect, 100 complete control
How it was run: (§1)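 Herbicidal effect, applied preemergence to sown seeds or postemergence to 1- to 4-leaf plants, was scored visually 13 to 15 d after application, 0 to 100 versus controls.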

[2] = system: barnyardgrass (Echinochloa crus-galli); settings: for Plant response rating, Barnyardgrass: scale 0 to 100, 0 no effect, 100 complete control
How it was run: as §1

[3] = system: blackgrass (Alopecurus myosuroides); settings: for Plant response rating, Blackgrass: scale 0 to 100, 0 no effect, 100 complete control
How it was run: as §1

corn (Zea mays) = settings: for Plant response rating, Corn: scale 0 to 100, 0 no effect, 100 complete control
How it was run: as §1

[4] = system: crabgrass, large (large crabgrass, Digitaria sanguinalis); settings: for Plant response rating, Crabgrass, Large: scale 0 to 100, 0 no effect, 100 complete control
How it was run: as §1

[5] = system: foxtail, giant (giant foxtail, Setaria faberii); settings: for Plant response rating, Foxtail, Giant: scale 0 to 100, 0 no effect, 100 complete control
How it was run: as §1

[6] = system: johnsongrass (Sorghum halepense); settings: for Plant response rating, Johnsongrass: scale 0 to 100, 0 no effect, 100 complete control
How it was run: as §1

[7] = system: lambsquarters (Chenopodium album); settings: for Plant response rating, Lambsquarters: scale 0 to 100, 0 no effect, 100 complete control
How it was run: as §1

[8] = system: morningglory (Ipomoea coccinea); settings: for Plant response rating, Morningglory: scale 0 to 100, 0 no effect, 100 complete control
How it was run: as §1

[9] = system: nutsedge, yellow (yellow nutsedge, Cyperus esculentus); settings: for Plant response rating, Nutsedge, Yellow: scale 0 to 100, 0 no effect, 100 complete control
How it was run: as §1

[10] = system: oilseed rape (Brassica napus); settings: for Plant response rating, Oilseed Rape: scale 0 to 100, 0 no effect, 100 complete control
How it was run: as §1

[11] = system: pigweed (Amaranthus retroflexus); settings: for Plant response rating, Pigweed: scale 0 to 100, 0 no effect, 100 complete control
How it was run: as §1

[12] = system: ragweed (common ragweed, Ambrosia elatior); settings: for Plant response rating, Ragweed: scale 0 to 100, 0 no effect, 100 complete control
How it was run: as §1

[13] = system: ryegrass, Italian (Italian ryegrass, Lolium multiflorum); settings: for Plant response rating, Ryegrass, Italian: scale 0 to 100, 0 no effect, 100 complete control
How it was run: as §1

soybean (Glycine max) = settings: for Plant response rating, Soybean: scale 0 to 100, 0 no effect, 100 complete control
How it was run: as §1

[14] = system: velvetleaf (Abutilon theophrasti); settings: for Plant response rating, Velvetleaf: scale 0 to 100, 0 no effect, 100 complete control
How it was run: as §1

[15] = system: waterhemp (common waterhemp, Amaranthus rudis); settings: for Plant response rating, Waterhemp: scale 0 to 100, 0 no effect, 100 complete control
How it was run: as §1

[16] = system: wheat (winter wheat, Triticum aestivum); settings: for Plant response rating, Wheat: scale 0 to 100, 0 no effect, 100 complete control
How it was run: as §1

[17] = 31 g ai/ha, 0 is no effect, 100 is complete control

Cc1ccc(C2CN(C)C(=O)C2C(=O)Nc2ccccc2S(C)(=O)=O)cc1 (stereo not drawn) [Compound 663]
Plant response rating (scale of 0 to 100), Galium [1, 17]: 90 | Plant response rating, Galium ([1]; 62 g ai/ha): 90 | Plant response rating, Galium ([1]; 125 g ai/ha): 85 | Plant response rating, Galium ([1]; 250 g ai/ha): 90 | Plant response rating (scale of 0 to 100), Barnyardgrass [2, 17]: 95 | Plant response rating, Barnyardgrass ([2]; 62 g ai/ha): 90 | Plant response rating, Barnyardgrass ([2]; 125 g ai/ha): 98 | Plant response rating, Barnyardgrass ([2]; 250 g ai/ha): 100 | Plant response rating (scale of 0 to 100), Blackgrass [3, 17]: 20 | Plant response rating, Blackgrass ([3]; 62 g ai/ha): 60 | Plant response rating, Blackgrass ([3]; 125 g ai/ha): 85 | Plant response rating, Blackgrass ([3]; 250 g ai/ha): 95 | Plant response rating (scale of 0 to 100), Corn (corn (Zea mays); [17]): 0 | Plant response rating, Corn (corn (Zea mays); 62 g ai/ha): 10 | Plant response rating, Corn (corn (Zea mays); 125 g ai/ha): 20 | Plant response rating, Corn (corn (Zea mays); 250 g ai/ha): 60 | Plant response rating (scale of 0 to 100), Crabgrass, Large [4, 17]: 95 | Plant response rating, Crabgrass, Large ([4]; 62 g ai/ha): 98 | Plant response rating, Crabgrass, Large ([4]; 125 g ai/ha): 100 | Plant response rating, Crabgrass, Large ([4]; 250 g ai/ha): 100 | Plant response rating (scale of 0 to 100), Foxtail, Giant [5, 17]: 95 | Plant response rating, Foxtail, Giant ([5]; 62 g ai/ha): 95 | Plant response rating, Foxtail, Giant ([5]; 125 g ai/ha): 98 | Plant response rating, Foxtail, Giant ([5]; 250 g ai/ha): 100 | Plant response rating (scale of 0 to 100), Johnsongrass [6, 17]: 0 | Plant response rating, Johnsongrass ([6]; 62 g ai/ha): 10 | Plant response rating, Johnsongrass ([6]; 125 g ai/ha): 20 | Plant response rating, Johnsongrass ([6]; 250 g ai/ha): 40 | Plant response rating (scale of 0 to 100), Lambsquarters [7, 17]: 70 | Plant response rating, Lambsquarters ([7]; 62 g ai/ha): 60 | Plant response rating, Lambsquarters ([7]; 125 g ai/ha): 65 | Plant response rating, Lambsquarters ([7]; 250 g ai/ha): 85 | Plant response rating (scale of 0 to 100), Morningglory [8, 17]: 0 | Plant response rating, Morningglory ([8]; 62 g ai/ha): 35 | Plant response rating, Morningglory ([8]; 125 g ai/ha): 30 | Plant response rating, Morningglory ([8]; 250 g ai/ha): 40 | Plant response rating (scale of 0 to 100), Nutsedge, Yellow [9, 17]: 0 | Plant response rating, Nutsedge, Yellow ([9]; 62 g ai/ha): 0 | Plant response rating, Nutsedge, Yellow ([9]; 125 g ai/ha): 0 | Plant response rating, Nutsedge, Yellow ([9]; 250 g ai/ha): 50 | Plant response rating (scale of 0 to 100), Oilseed Rape [10, 17]: 30 | Plant response rating, Oilseed Rape ([10]; 62 g ai/ha): 20 | Plant response rating, Oilseed Rape ([10]; 125 g ai/ha): 65 | Plant response rating, Oilseed Rape ([10]; 250 g ai/ha): 80 | Plant response rating (scale of 0 to 100), Pigweed [11, 17]: 70 | Plant response rating, Pigweed ([11]; 62 g ai/ha): 60 | Plant response rating, Pigweed ([11]; 125 g ai/ha): 70 | Plant response rating, Pigweed ([11]; 250 g ai/ha): 75 | Plant response rating (scale of 0 to 100), Ragweed [12, 17]: 50 | Plant response rating, Ragweed ([12]; 62 g ai/ha): 55 | Plant response rating, Ragweed ([12]; 125 g ai/ha): 70 | Plant response rating, Ragweed ([12]; 250 g ai/ha): 85 | Plant response rating (scale of 0 to 100), Ryegrass, Italian [13, 17]: 10 | Plant response rating, Ryegrass, Italian ([13]; 62 g ai/ha): 70 | Plant response rating, Ryegrass, Italian ([13]; 125 g ai/ha): 50 | Plant response rating, Ryegrass, Italian ([13]; 250 g ai/ha): 75 | Plant response rating (scale of 0 to 100), Soybean (soybean (Glycine max); [17]): 0 | Plant response rating, Soybean (soybean (Glycine max); 62 g ai/ha): 10 | Plant response rating, Soybean (soybean (Glycine max); 125 g ai/ha): 0 | Plant response rating, Soybean (soybean (Glycine max); 250 g ai/ha): 0 | Plant response rating (scale of 0 to 100), Velvetleaf [14, 17]: 5 | Plant response rating, Velvetleaf ([14]; 62 g ai/ha): 15 | Plant response rating, Velvetleaf ([14]; 125 g ai/ha): 30 | Plant response rating, Velvetleaf ([14]; 250 g ai/ha): 55 | Plant response rating (scale of 0 to 100), Waterhemp [15, 17]: 50 | Plant response rating, Waterhemp ([15]; 62 g ai/ha): 60 | Plant response rating, Waterhemp ([15]; 125 g ai/ha): 85 | Plant response rating, Waterhemp ([15]; 250 g ai/ha): 90 | Plant response rating (scale of 0 to 100), Wheat [16, 17]: 0 | Plant response rating, Wheat ([16]; 62 g ai/ha): 50 | Plant response rating, Wheat ([16]; 125 g ai/ha): 55 | Plant response rating, Wheat ([16]; 250 g ai/ha): 90
